From ChEMBL document CHEMBL5329165, “Design, synthesis and biological evaluation of phenanthridine amide and 1,2,3-triazole analogues against Mycobacterium tuberculosis” (RSC Med Chem, 2023)
In brackets after ≈: the same amount, converted by molar mass.

Test system: Mycobacterium tuberculosis
Test: Antimycobacterial activity against Mycobacterium tuberculosis H37Ra transformed with pSMT1 luciferase reporter plasmid incubated for 7 days by luminometric assay
Assay type: functional
Conditions: 168 h, time 7 day

SMILES: O=C(Nc1ccc(N2CCN(C(=O)c3cnccn3)CC2)nc1)c1ccccc1
- MIC: 1.46 µM (≈ 0.567 µg/mL)
